Usually IC50 stands for the point on the concentration scale where inhibition reaches its midpoint. The low end stands for inhibition by little substance, the high end for a need for much substance. One may read the EC50 as the concentration needed to bring the measured effect to its halfway point. Low values mean a more potent agent, high ones a less potent agent.

One data set concerns mice. The conditions noted are these: cited from earlier work.
Data set [1] has as its system New Zealand white rabbits. The experiment in a line: Oral WIN 18,446 in rabbits: ejaculated sperm, testicular retinoic acid, serum testosterone. The format is in vivo, rabbit. From the text:
In 2011, it was discovered that WIN 18,446 suppresses spermatogenesis by inhibiting testicular retinoic acid biosynthesis.
All animals were azoospermic between week 16 of treatment and week 8 of recovery. Animals underwent a hemi-orchiectomy at the end of treatment, which accounts for the 50% reduction in sperm output at the end of recovery. *p<0.05 compared with baseline.
FIG. 1C compares testicular tissue retinoic acid concentration (pmol/g of tissue) in New Zealand white rabbits treated with 200 mg/kg WIN 18,446 daily, orally over time (N=4/group). […] All values are means±SEM. *p<0.05 compared with placebo, **p<0.01.

The test system of a further data set is men. The conditions noted are these: cited from earlier work.
The target of data set [2] is T1, ALDH1A1 (Homo sapiens, UniProt P00352).
T1 sequence (P00352 1-501): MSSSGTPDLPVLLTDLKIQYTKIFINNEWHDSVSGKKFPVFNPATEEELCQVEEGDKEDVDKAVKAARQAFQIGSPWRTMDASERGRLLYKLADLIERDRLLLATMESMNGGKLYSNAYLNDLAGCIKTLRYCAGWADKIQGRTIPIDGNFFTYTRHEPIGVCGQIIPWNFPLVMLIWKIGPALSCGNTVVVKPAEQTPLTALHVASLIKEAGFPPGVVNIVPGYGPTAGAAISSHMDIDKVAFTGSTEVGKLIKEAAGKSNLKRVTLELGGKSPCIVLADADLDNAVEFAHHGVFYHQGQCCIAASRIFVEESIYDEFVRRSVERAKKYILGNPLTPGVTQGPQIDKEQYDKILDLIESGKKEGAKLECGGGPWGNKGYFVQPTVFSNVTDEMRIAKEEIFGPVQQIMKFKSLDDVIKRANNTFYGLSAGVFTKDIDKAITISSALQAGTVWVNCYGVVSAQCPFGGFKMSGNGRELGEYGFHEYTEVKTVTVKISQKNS
The experiment in a line: Inhibitor screening using purified enzymes: ALDH1A1 activity, retinoic acid production by HPLC. The format is biochemical. The conditions noted are these: purified enzyme. From the text: ALDHs were cloned into bacterial expression vector for in vitro enzyme assays and into mammalian expression vectors for cell-based enzyme assays. Human ALDH1A1 cDNA and human ALDH2 cDNA were purchased from OriGene (SC321535) and Open Biosystems (MHS4771-99611182), respectively. and human ALDH1A2 cDNA was cloned from human testis RNA using RT-PCR (Population Division of the Department of Economic and Social Affairs of the United Nations Secretariat. World Population prospects: the 2008 revision. Available at http://www.un.org/esa/population/ (Retrieved Sep. 30, 2011)). For bacterial expression, an open reading frame of ALDH1A1 and ALDH2 were subcloned into the pETite vector (Lucigen) with a 5′ histidine-tag and that of ALDH1A2 into a pET28 vector (Novagen) with a 3′ histidine-tag. Correct frame and sequences were verified through DNA sequencing (UW DNA sequencing facility). ALDHs were induced with 1 mM IPTG and purified using His.Bind resin (Novagen, San Diego, Calif.) and stored in a buffer containing 20 mM Hepes (pH 8), 150 mM KCl and 1 mM EDTA as previously described (Fierce, Y., de Morais Vieira, M., Piantedosi, R., Wyss, A., Blaner, W. S., and Paik, J. (2008) In vitro and in vivo characterization of retinoid synthesis from beta-carotene. Archives of biochemistry and biophysics 472, 126-138).
ALDH1A1 and ALDH1A2 activity was determined as previously reported (Beedle M T, Stevison F, Zhong G, Topping T, Hogarth C, Isoherranen N, Griswold M D. Sources of All-Trans Retinal Oxidation Independent of the Aldehyde Dehydrogenase 1A Isozymes Exist in the Postnatal Testis. Biol Reprod. 2018 Sep. 21. doi: 10.1093/biolre/ioy200). Briefly, purified enzymes were incubated in a buffer containing 10 mM HEPES buffer (pH 8.0), 150 mM potassium chloride and 2 mM EDTA with 2 mM NAD. Retinoic acid production was determined using HPLC as previously reported (Amory J K, Muller C H, Shimshoni A J, Isoherranen N, Paik J, Moreb J S, Amory D W, Evanoff R, Goldstein A S, Griswold M D. Suppression of spermatogenesis by bisdichloroacetyldiamines is mediated by inhibition of testicular retinoic acid biosynthesis. Journal of Andrology 2011; 32(1):111-119). Inhibitors were diluted in DMSO and added to the reactions. […] For initial screening of inhibitors for ALDH1A2, 1 μg ALDH1A2, 5 μM all-trans-retinal and 5 μM inhibitors were incubated for 15 min at 37° C. […] For this purpose, 0.5 μg ALDH1A2 and […] were incubated for 5 minutes at 37° C. with varying concentrations of inhibitors. To determine specificity toward ALDH1A2, the IC50 for […]

Data set [3] addresses T1, ALDH1A1. The experiment in a line: Cell-based enzyme assay, retinoic acid production in ALDH1A1/H1299 cells. A digest of the protocol: (§1)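 ALDH1A1- or ALDH1A2-stably transfected H1299 cells grown to confluence, then treated 20 h in serum-free RPMI-1640 with 2 μM all-trans-retinal plus varying inhibitor concentrations at 37 °C. Retinoic acid in cells and media quantified; inhibition from RA levels with vs without inhibitor.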

The target of data set [4] is T2, ALDH1A2 (Homo sapiens, UniProt O94788).
T2 sequence (O94788 1-518): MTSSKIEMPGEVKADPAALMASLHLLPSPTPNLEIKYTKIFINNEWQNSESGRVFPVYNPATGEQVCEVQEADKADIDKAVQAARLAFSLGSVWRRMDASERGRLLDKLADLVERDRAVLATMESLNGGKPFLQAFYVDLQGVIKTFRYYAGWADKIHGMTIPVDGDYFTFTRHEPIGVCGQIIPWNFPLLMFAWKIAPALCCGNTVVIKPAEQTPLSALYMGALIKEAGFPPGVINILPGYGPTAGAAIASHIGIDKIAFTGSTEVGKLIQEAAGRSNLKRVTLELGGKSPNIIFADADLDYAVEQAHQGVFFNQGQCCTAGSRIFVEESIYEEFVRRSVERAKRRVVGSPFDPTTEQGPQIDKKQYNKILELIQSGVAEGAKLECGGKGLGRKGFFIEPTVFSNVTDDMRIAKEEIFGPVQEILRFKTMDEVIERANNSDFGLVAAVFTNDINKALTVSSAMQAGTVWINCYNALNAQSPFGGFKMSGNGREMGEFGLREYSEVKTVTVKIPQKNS
The data set is described as follows: Cell-based enzyme assay, retinoic acid production in ALDH1A2/H1299 cells. Summed up:
as §1

Data set [5] addresses T2, ALDH1A2. The experiment in a line: Inhibitor screening using purified enzymes: ALDH1A2 activity, retinoic acid production by HPLC (5 uM initial screen, then IC50). The format is biochemical. The arrangement: histidine-tag (C); made in house; host or cells: bacterial expression (pET28 vector, IPTG induction). The conditions noted are these: purified enzyme. Summed up: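 Purified His-tagged human enzymes in 10 mM HEPES pH 8.0, 150 mM KCl, 2 mM EDTA with 2 mM NAD, all-trans-retinal substrate; retinoic acid quantified by HPLC. ALDH1A2 initial screen: 1 μg enzyme, 5 μM retinal, 5 μM inhibitor, 15 min, 37° C; IC50 runs: 0.5 μg enzyme, 0.5 μg retinal, 5 min, 37° C.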

Entries after “also recorded” stand apart in the source; their conditions may differ. Read-outs that look alike come from different tables or passages of the source.

BMS-189453: the fertility result with mice (mice, oral) was “infertile after four weeks of treatment”. The liver toxicity result with mice (mouse, in vivo) is “hepatic inflammation”. In the data set on mice (oral doses as low as 5 mg/kg for seven days), the effect on spermatogenesis entry is “potently inhibits spermatogenesis”.
For `O=C(NCCCCCCCCNC(=O)C(Cl)Cl)C(Cl)Cl` [WIN 18,446], in data set [1] (200 mg/kg daily, orally over time), the “testicular tissue retinoic acid concentration” value was “reduction in intra-testicular retinoic acid”. In addition, the ejaculated sperm concentrations result in data set [1] (200 mg/kg orally for 16 weeks, 200 mg/kg) is “reversible azoospermia; also recorded: azoospermic”. Moreover, the sperm concentration result in the data set with men (at least sixty men, up to one year) is “below 1 million sperm/ml of ejaculate”. Besides, in the data set on men (men, when they drank alcohol), the “adverse reaction with alcohol” value is recorded as “disulfiram reaction”.
As for `C=C(C(=O)OC)c1ccc(-c2nn(-c3ccc(C#N)cc3)cc2C(=O)Nc2cccc(F)c2)cc1` [Compound 312, Methyl 2-(4-{4-[(3-fluorophenyl)carbamoyl]-1-4-cyanophenyl-1H-pyrazol-3-yl}phenyl)prop-2-enoate], the values for the concentration for half-maximal inhibition (IC50) at ALDH1A1 [2] and against ALDH1A2 [5] were 3.61 µM and 1.2 µM, respectively. In addition, the EC50 on ALDH1A1 [3] (cell-based) was determined as 0.251 µM; on ALDH1A2 [4] (cell-based), 12.5 µM.
For the compound `Cn1cccc1C(=O)N1CCN(c2ccc(NC(=O)C(Cl)Cl)c(N3CCCCC3)c2)CC1` [Compound 380, {4-[4-Dichloroacetamido-3-(piperidin-1-yl)phenyl]piperazin-1-yl}(1-methyl-1H-pyrrol-2-yl)methanone], the IC50 amounted to 0.023 µM against ALDH1A1 [2] and 8.7 µM at ALDH1A2 [5]. For the same compound, the results for the EC50 on ALDH1A1 [3] and at ALDH1A2 [4] were 0.099 µM and more than 5 µM, respectively.
On to `Cn1cccc1C(=O)N1CCN(c2ccc(N)c(N3CCCCCC3)c2)CC1` [Compound 379, {4-[4-Amino-3-(azepan-1-yl)phenyl]piperazin-1-yl}(1-methyl-1H-pyrrol-2-yl)methanone], for which the half-maximal inhibitory concentration (IC50) on ALDH1A1 [2] amounted to 0.714 µM; on ALDH1A2 [5], 2.58 µM. Besides, the EC50 came out at 0.736 µM on ALDH1A1 [3] and 2.58 µM at ALDH1A2 [4].
“3-{4-[(Difluoroacetyl)amino]phenyl}-1-(4-cyanophenyl)-N-(3-fluorophenyl)-1H-pyrazole-4-carboxamide [Compound 279]”: the IC50 on ALDH1A1 [2] was 0.029 µM; at ALDH1A2 [5], 0.61 µM. In addition, the results for the EC50 at ALDH1A1 [3] (cell-based) and on ALDH1A2 [4] (cell-based) were 0.056 µM and 0.017 µM, respectively.

The record behind these values is patent US11548875B2, “Inhibitor compounds for male contraception” (University of Washington, priority 2018, dated 2023).
